Test results published in PMC7926352, “Synthesis, Characterization and In Vitro Evaluation of Novel 5-Ene-thiazolo[3,2-b][1,2,4]triazole-6(5H)-ones as Possible Anticancer Agents” (Molecules, 2021).
Like-named read-outs stand apart in the source and are kept apart here.

Legend:
[1] = test system: panel of approximately sixty human tumor cell lines; experiment: NCI-60 human tumor cell lines screen (SRB), full panel; assay type: cell-based; settings: for GI50: read-out: GI50, Total MG_MID; for Positive Cytostatic Effect: ratio of number of cell lines with percent growth from 0 to 50 to total number of cell lines
Description: Compounds 2a, 2c–f, 2h–l, 3, 5e, 5f were selected for antitumor activity which was performed according to the standard protocols of National Cancer Institute (NCI, Bethesda, MD, USA) Developmental Therapeutic Program (DTP). At the prescreening stage, the compounds were evaluated for antitumor activity at the concentration of 10 µM against a panel of approximately sixty cancer cell lines representing different types of cancer including leukemia, melanoma, lung, colon, CNS, ovarian, renal, prostate and breast cancers.
Among them, three compounds (2d, 2h, 2i) presented excellent cytotoxic and four derivatives (2d, 2h, 2i, 2k) cytostatic properties in one or more cell lines when applied at a concentration of 10 µM. […] The outcomes were calculated and presented in the form of three response parameters (GI50, TGI and LC50) for each cell line via growth percentage inhibition curves. […]
The primary anticancer assay was performed on a panel of approximately sixty human tumor cell lines derived from nine neoplastic diseases (leukemia, melanoma, lung, colon, CNS, ovarian, renal, prostate, and breast cancers), in accordance with the protocol of the National Cancer Institute Drug Evaluation Branch (Bethesda, MD, USA). Tested compounds were added to the culture at a single concentration (10^−5 M) and the cultures were incubated for 48 h. End-point determinations were made with a protein-binding dye, sulforhodamine B (SRB). Results for each tested compound were reported as the percentage of the growth of the treated cells when compared to the untreated control cells. The percentage of the growth was evaluated spectrophotometrically versus controls not treated with test agents. […] Using absorbance measurements [time zero (Tz), control growth in the absence of drug (C), and test growth in the presence of the drug (Ti)], the percentage growth was calculated for each drug concentration. Percentage growth inhibition was calculated as:[(Ti − Tz)/[…]] × 100(1) for concentrations for which Ti ≥ Tz, [(Ti − Tz)/Tz] × 100 for concentrations for which Ti < Tz. Dose-response parameters (GI50, TGI) were calculated for each compound. Growth inhibition of 50% (GI50) was calculated from [(Ti − Tz)/(C − Tz)] × 100 = 50, which is the drug concentration resulting in a 50% lower net protein increase in the treated cells (measured by SRB staining) as compared to the net protein increase seen in the control cells. The drug concentration resulting in total growth inhibition (TGI) was calculated from Ti = Tz. Values were calculated for each of these parameters if the level of activity was reached; however, if the effect was not reached or was excessive, the value for that parameter was expressed as more or less than the maximum or minimum concentration tested. The lowest values were obtained with the most sensitive cell lines. Compounds having GI50 values ≤ 100 μM were declared to be active. The selectivity index (SI) calculated by dividing the full panel MG_MID (full-panel mean-graph midpoint) (μM) of the compounds 2h and 2i by their individual subpanel MG_MID of a cell line (μM) was considered as a measure of compounds’ selectivity. Ratios between 3 and 6 mean moderate selectivity, ratios greater than 6 indicate high selectivity toward the corresponding cell line, while compounds not meeting either of these criteria are rated nonselective.

[2] = Homo sapiens, read-out: GI50, panel MG_MID
[3] = Homo sapiens, read-out: GI50, values range inside panel
[4] = Homo sapiens, read-out: LC50, panel MG_MID
[5] = Homo sapiens, read-out: LC50, values range inside panel
[6] = 60 cell lines assay in one dose, 10 μM, 48 h

Compound: O=C(COc1ccc(Cl)cc1/C=c1\sc2ncnn2c1=O)Nc1ccc(Cl)cc1 [Compound 2h, (Z)-2-(4-Chloro-2-((6-oxothiazolo[3,2-b][1,2,4]triazol-5(6H)-ylidene)methyl)phenoxy)-N-(4-chlorophenyl)acetamide]
- GI50 (SR; Homo sapiens): 1.38 µM
- CC50 (SR; Homo sapiens, read-out: LC50): 17.4 µM
- TGI (SR; Leukemia): 4.07 µM
- GI50 (Renal Cancer cell lines; [2]): 5.37 µM
- GI50 (Renal Cancer cell lines; [3]): 1.62 to 12.6 µM
- CC50 (Renal Cancer cell lines; [4]): 40.5 µM
- CC50 (Renal Cancer cell lines; [5]): 28.8 to 50.1 µM
- TGI, panel MG_MID (Renal Cancer cell lines; Renal Cancer subpanel): 16.40 µM
- TGI, values range inside panel (Renal Cancer cell lines; Renal Cancer subpanel): 8.12 to 25.11 µM
- TGI (NCI/ADR-RES; Breast Cancer): 41.68 µM
- GI50 (NCI/ADR-RES; Homo sapiens): 15.5 µM
- CC50 (NCI/ADR-RES; Homo sapiens, read-out: LC50): > 100 µM
- GI50 (LOX IMVI; Homo sapiens): 2.63 µM
- CC50 (LOX IMVI; Homo sapiens, read-out: LC50): 33.1 µM
- TGI (LOX IMVI; Melanoma): 11.22 µM
- GI50 (SW-620; Homo sapiens, SW-620): 4.26 µM
- CC50 (SW-620; Homo sapiens, SW-620, read-out: LC50): 38 µM
- TGI (SW-620; SW-620, Colon cancer): 14.79 µM
- GI50 (MOLT-4; Homo sapiens, MOLT-4): 1.9 µM
- CC50 (MOLT-4; Homo sapiens, MOLT-4, read-out: LC50): 22.9 µM
- TGI (MOLT-4; MOLT-4, Leukemia): 5.01 µM
- GI50 (OVCAR-3; Homo sapiens, OVCAR-3): 2.18 µM
- CC50 (OVCAR-3; Homo sapiens, OVCAR-3, read-out: LC50): 19.5 µM
- TGI (OVCAR-3; OVCAR-3, Ovarian Cancer): 5.62 µM
- GI50 (CCRF-CEM; Homo sapiens): 1.35 µM
- CC50 (CCRF-CEM; Homo sapiens, read-out: LC50): 7.58 µM
- TGI (CCRF-CEM; Leukemia): 3.16 µM
- TGI (HCT-116; HCT-116, Colon cancer): 20.89 µM
- GI50 (HCT-116; Homo sapiens, HCT-116): 7.58 µM
- CC50 (HCT-116; Homo sapiens, HCT-116, read-out: LC50): 45.7 µM
- GI50 (Leukemia cell lines; [2]): 1.92 µM
- GI50 (Leukemia cell lines; [3]): 1.35 to 2.69 µM
- CC50 (Leukemia cell lines; [4]): 26.8 µM
- CC50 (Leukemia cell lines; [5]): 7.58 to 49 µM
- TGI, panel MG_MID (Leukemia cell lines; Leukemia subpanel): 6.85 µM
- TGI, values range inside panel (Leukemia cell lines; Leukemia subpanel): 3.16 to 14.45 µM
- GI50 (ACHN; Homo sapiens): 12.6 µM
- CC50 (ACHN; Homo sapiens, read-out: LC50): 50.1 µM
- TGI (ACHN; Renal Cancer): 25.11 µM
- GI50 (KM12; Homo sapiens, KM12): 2.45 µM
- CC50 (KM12; Homo sapiens, KM12, read-out: LC50): 33.1 µM
- TGI (KM12; KM12, Colon cancer): 10.96 µM
- TGI (HOP-62; HOP-62, NSCLC): 16.59 µM
- GI50 (HOP-62; Homo sapiens, HOP-62): 4.67 µM
- CC50 (HOP-62; Homo sapiens, HOP-62, read-out: LC50): 42.6 µM
- TGI (HS 578T; HS 578T, Breast Cancer): 5.24 µM
- GI50 (HS 578T; Homo sapiens, Hs-578T): 2.04 µM
- CC50 (HS 578T; Homo sapiens, Hs-578T, read-out: LC50): 33.9 µM
- GI50 (PC-3; Homo sapiens, PC-3): 3.8 µM
- CC50 (PC-3; Homo sapiens, PC-3, read-out: LC50): 45.7 µM
- TGI (PC-3; PC-3, Prostate Cancer): 16.21 µM
- activity at 10 µM ([1]; Homo sapiens, 60 cell lines assay in one dose, 10 μM, 48 h, read-out: Mean Growth, %): 29%
- activity at 10 µM ([1]; Homo sapiens, 60 cell lines assay in one dose, 10 μM, 48 h, read-out: Range of Growth, %): -48 to 122%
- GI50 ([1]; Homo sapiens, full panel average): 3.54 µM
- CC50 ([1]; Homo sapiens, full panel average, read-out: LC50, Total MG_MID): 37.1 µM
- TGI, Total MG_MID ([1]; full panel average): 12.88 µM
- Positive Cytostatic Effect ([1]; one dose, 10 μM): 30/57
- Positive Cytotoxic Effect ([1]; one dose, 10 μM, ratio of number of cell lines with percent growth of <0 to total number of cell lines): 12/57
- TGI (HL-60 (TB); HL-60 (TB), Leukemia): 9.54 µM
- GI50 (HL-60 (TB); Homo sapiens, HL-60): 2.69 µM
- CC50 (HL-60 (TB); Homo sapiens, HL-60, read-out: LC50): 37.1 µM
- GI50 (SF-268; Homo sapiens, SF-268): 2.39 µM
- CC50 (SF-268; Homo sapiens, SF-268, read-out: LC50): 37.1 µM
- TGI (SF-268; SF-268, CNS Cancer): 10.47 µM

Compound: Ethyl(Z)-4-(3-(4-chloro-2-((6-oxothiazolo[3,2-b][1,2,4]triazol-5(6H)-ylidene)methyl)phenyl)propanamido)benzoate [Compound 2i]
- GI50 (SR; Leukemia): 11 µM
- TGI (SR; Leukemia): 79.43 µM
- TGI, panel MG_MID (Renal Cancer cell lines; Renal Cancer subpanel): 27.13 µM
- TGI, values range inside panel (Renal Cancer cell lines; Renal Cancer subpanel): 21.37 to 31.62 µM
- GI50 (Renal Cancer cell lines; read-out: GI50, panel MG_MID, Renal Cancer subpanel): 13 µM
- GI50 (Renal Cancer cell lines; read-out: GI50, values range inside panel, Renal Cancer subpanel): 5.75 to 17.4 µM
- CC50 (Renal Cancer cell lines; read-out: LC50, values range inside panel, Renal Cancer subpanel): 51.3 to 58.9 µM
- GI50 (NCI/ADR-RES; Breast Cancer): 21.9 µM
- TGI (NCI/ADR-RES; Breast Cancer): 67.60 µM
- GI50 (LOX IMVI; Melanoma): 5.62 µM
- TGI (LOX IMVI; Melanoma): 18.19 µM
- GI50 (SW-620; SW-620, Colon cancer): 9.99 µM
- TGI (SW-620; SW-620, Colon cancer): 21.37 µM
- GI50 (MOLT-4; MOLT-4, Leukemia): 18.2 µM
- TGI (MOLT-4; MOLT-4, Leukemia): 52.48 µM
- GI50 (OVCAR-3; OVCAR-3, Ovarian Cancer): 13.8 µM
- TGI (OVCAR-3; OVCAR-3, Ovarian Cancer): 27.54 µM
- GI50 (CCRF-CEM; Leukemia): 2.88 µM
- TGI (CCRF-CEM; Leukemia): 9.99 µM
- GI50 (HCT-116; HCT-116, Colon cancer): 9.55 µM
- TGI (HCT-116; HCT-116, Colon cancer): 23.44 µM
- TGI, panel MG_MID (Leukemia cell lines; Leukemia subpanel): 51.55 µM
- GI50 (Leukemia cell lines; read-out: GI50, panel MG_MID, Leukemia subpanel): 11.3 µM
- GI50 (Leukemia cell lines; read-out: GI50, values range inside panel, Leukemia subpanel): 2.88 to 18.2 µM
- GI50 (ACHN; Renal Cancer): 15.5 µM
- TGI (ACHN; Renal Cancer): 28.84 µM
- GI50 (KM12; KM12, Colon cancer): 10.2 µM
- TGI (KM12; KM12, Colon cancer): 23.98 µM
- GI50 (HOP-62; HOP-62, NSCLC): 13.2 µM
- TGI (HOP-62; HOP-62, NSCLC): 26.91 µM
- GI50 (HS 578T; HS 578T, Breast Cancer): 3.54 µM
- TGI (HS 578T; HS 578T, Breast Cancer): 19.49 µM
- GI50 (PC-3; PC-3, Prostate Cancer): 11.2 µM
- TGI (PC-3; PC-3, Prostate Cancer): 38.01 µM
- Mean Growth, % [1, 6]: 61.05%
- Range of Growth, % [1, 6]: −22.54 to 122.94%
- TGI, Total MG_MID ([1]; full panel average): 28.18 µM
- GI50 ([1]; full panel average): 11 µM
- Positive Cytostatic Effect ([1]; one dose, 10 μM): 17/58
- GI50 (HL-60 (TB); HL-60 (TB), Leukemia): 12.3 µM
- TGI (HL-60 (TB); HL-60 (TB), Leukemia): 41.68 µM
- CC50 (HL-60 (TB); read-out: LC50, HL-60 (TB), Leukemia): > 100 µM
- GI50 (SF-268; SF-268, CNS Cancer): 6.02 µM
- TGI (SF-268; SF-268, CNS Cancer): 28.84 µM
